The target of the assay is T1, Bacillus subtilis lipase A (BSLA WT) (Bacillus subtilis, UniProt P37957).
T1 construct: gene estA
The assay can be described thus: fluorogenic hydrolysis assay. In kind it is biochemical. The settings on record: 500 nM enzyme, 20 °C; W42C purified by cation exchange.

On to `CCCC(=O)Oc1ccc2c(C)cc(=O)oc2c1` [4-methylumbelliferyl butyrate], for which the fluorogenic hydrolysis assay entry is “The kinetic effect of PMMA on BSLA WT and W42C was found to be identical”.

Source of the values: PMC12316734, “Lipase Activation by Poly(Methyl Methacrylate) in Dispersed Solution: Mechanistic Insights by Fluorescence Spectroscopy” (Applied Biochemistry and Biotechnology, 2025).
